Measurements: US6369103B1, “Method for preventing or reducing risk of onset of cardiovascular events employing an HMG CoA reductase inhibitor” (Bristol-Myers Squibb Company, priority 1994, dated 2002)
Like-named read-outs stand apart in the source and are kept apart here.

How the values were obtained:
[1] = tested on: patients with primary hypercholesterolemia and ≧2 additional risk factors for coronary artery disease; details: for Sudden cardiac death, number / Myocardial infarction (fatal and nonfatal), number: n = 530; for Myocardial infarction (fatal and nonfatal), number: p = 0.031 vs placebo
Method: This example describes a large multinational study, “Effects of Pravastatin in Patients with Serum Total Cholesterol Levels from 5.2 to 7.8 mmol/liter (200 to 300 mg/dl) Plus Two Additional Atherosclerotic Risk Factors,” The Pravastatin Multinational Study Group for Cardiac Risk Patients, reported in Am. J. Cardiology Vol. 72, Nov. 1, 1993, 1031-1036. The study was designed to examine the efficacy and safety of pravastatin, together with diet modification and advice on smoking, in patients with primary hypercholesterolemia and ≧2 additional risk factors for coronary artery disease (CAD).
(§1) The efficacy and long-term safety of pravastatin in hypercholesterolemic patients were investigated in this multicenter, randomized, double-blind placebo-controlled trial. After dietary stabilization and recommendations for lifestyle modification during a 6-week placebo lead-in period, patients were randomized to receive pravastatin 20 mg or placebo at bedtime. After 13 weeks, patients who responded (defined as a decrease in total cholesterol level by >15% from baseline or to <5.2 mmol/liter [200 mg/dl]) to treatment continued on the same study medication for 13 additional weeks. […] Compliance with dietary instructions and other lifestyle counseling were periodically assessed. After completing the initial 26-week period, patients were given the option to continue in an additional 26-week double-blind phase and, following the first 52 weeks, a final 26-week period that was open-label for pravastatin in patients originally assigned to that treatment group. Additional lipid-lowering medications, except other 3-hydroxy-3-methylglutaryl coenzyme A reductase inhibitors and fibrates, could be added to patients not meeting treatment goals at the end of the first 26 weeks. Fibrates could be added in the open-label period of the study in patients originally assigned placebo.
The protocol was approved by each local ethics committee, and patients gave informed consent before randomization. The study population was to be limited to men and postmenopausal or surgically sterile women 20 to 69 years old. At entry, patients were to have a serum total cholesterol concentration between 5.2 and 7.8 mmol/liter (200 and 300 mg/dl) despite dietary intervention as well as ≧2 additional risk factors for CAD as defined in the protocol (male gender, systemic hypertension, cigarette smoking, family history of CAD, prior myocardial infarction, or history of angina pectoris). Exclusion criteria included (1) a history of homozygous familial hypercholesterolemia; (2) types I, III, IV or V hyperlipoproteinemia; (3) significant metabolic, renal, hepatic or endocrine disease; (4) history of drug abuse; or (5) obesity (>40% above ideal body weight). Patients were also excluded if, within 8 weeks of randomization, they were taking cortico-steroids immunosuppressive drugs, investigational drugs, androgens, or estrogens and progestins for indications other than replacement therapy.
(§2) After ≧4 weeks of dietary stabilization, 2 qualifying blood samples for the lipid profile were drawn approximately 1 week apart after an overnight fast of ≧10 hours. Seated systolic and diastolic blood pressures were recorded at 2 weeks and 1 week before randomization; other risk factors were assessed 1 week before randomization. Baseline lipid and laboratory safety tests, blood pressure and body weight measurements, and an ophthalmologic evaluation (including visual acuity and determination of lenticular opacities) were performed at randomizations. The presence of concurrent disease and the use of concomitant medications were also recorded. When patients returned for clinic visits at weeks 6, 13 and 26, body weight and blood pressure were measured, morning samples for lipid profiles and laboratory safety tests were drawn, and clinical adverse events and concomitant medications were recorded. Drug compliance (by tablet count) was assessed and the ophthalmologic evaluation was repeated at weeks 13 and 26.

[2] = tested on: patients with primary hypercholesterolemia and ≧2 additional risk factors for coronary artery disease; assay: Multinational randomized double-blind placebo-controlled trial: effects on plasma lipids; type: in vivo, human; details: for LDL cholesterol, Mean ± SEM: calculated (Friedewald)
Method: J. Cardiology Vol. 72, Nov. 1, 1993, 1031-1036. […] Lipid analyses were performed at local laboratories and a central laboratory. […] The LDL cholesterol concentration was calculated using the Friedewald equation converted to mmol/liter: […] To assess the comparability of treatment groups, baseline values and demographic characteristics for all randomized patients were summarized for each treatment group by descriptive statistics. The primary efficacy variables were the serum lipids analyzed at local laboratories at weeks 0, 6, 13 and 26. All values were transformed to natural logarithms for the analysis. Geometric means were used to summarize lipid values by treatment group at each visit. Treatment groups were compared by analysis of covariance of change from baseline in transformed values with baseline as a covariate.

[3] = tested on: patients with primary hypercholesterolemia and ≧2 additional risk factors for coronary artery disease; details: in vivo
Method: as §1, §2
Laboratory safety tests were performed by local laboratories and consisted of hematology (hemoglobin, red blood cell count, hematocrit, platelet count, and white blood cell count and differential) and blood chemistries (urea, creatinine, uric acid, calcium, total bilirubin, alkaline phosphatase, aspartate aminotransferase, alanine aminotransferase, γ-glutamyl aminotransferase, total protein, albumin and creatine kinase).
The incidence of adverse events in each treatment group was summarized by body system and individual events. In addition, events predefined by the protocol to be serious, e.g., fatal events or events leading to or prolonging hospitalization, were tabulated. Hematology and biochemistry variables were summarized and analyzed by geometric means and analysis of covariance of change from baseline. Ophthalmologic results were summarized in terms of the number of lenticular opacities present at baseline and at weeks 13 and 26. […] Differences in the incidence of adverse events were typically analyzed by the chi-square test with the Fisher's exact test used for rare events. Results were reported as statistically significant if a 2-sided p value ≦0.05 was attained.

[4] = tested on: patients with primary hypercholesterolemia and ≧2 additional risk factors for coronary artery disease; details: Pearson et al. commentary, cited from earlier work
[5] = first 26 weeks, listed as Pravastatin
[6] = baseline to Week 26, p<0.001 vs placebo
[7] = end of initial 26 weeks, 20 to 40 mg once daily (average dose 26.5 mg)
[8] = week 13, 20 mg at bedtime, p<0.001 compared with placebo

CC[C@H](C)C(=O)O[C@H]1C[C@H](O)C=C2C=C[C@H](C)[C@H](CC[C@@H](O)C[C@@H](O)CC(=O)O)[C@H]21 [pravastatin]
changes in visual acuity (without correction) and incidence of new ocular opacities ([1]; both, human, in vivo): limited and similar in the 2 treatment groups
Acute congestive heart failure, number ([1]; both, human, in vivo, 26 weeks): 1
Central nervous system serious adverse events, Subtotal ([1]; both, human, in vivo, 26 weeks): 0
Cerebral infarction, number ([1]; both, human, in vivo, 26 weeks): 0
Other serious adverse events, Subtotal ([1]; both, human, in vivo, 26 weeks): 4
Other serious adverse events: Diabetes, number ([1]; both, human, in vivo, 26 weeks): 1
Other serious adverse events: Gastrointestinal, number ([1]; both, human, in vivo, 26 weeks): 2
Other serious adverse events: Peripheral arterial disease, number ([1]; both, human, in vivo, 26 weeks): 1
Other serious adverse events: Pulmonary, number ([1]; both, human, in vivo, 26 weeks): 0
Serious cardiovascular adverse events ([1]; both, human, in vivo, 26 weeks): 0.2%
Serious cardiovascular adverse events (Subtotal), number ([1]; both, human, in vivo, 26 weeks): 1
Surgery serious adverse events, Subtotal ([1]; both, human, in vivo, 26 weeks): 1
Surgery: Abdominal (hernia), number ([1]; both, human, in vivo, 26 weeks): 0
Surgery: Breast, number ([1]; both, human, in vivo, 26 weeks): 0
Surgery: Coronary artery bypass graft, number ([1]; both, human, in vivo, 26 weeks): 0
Surgery: Joint (knee), number ([1]; both, human, in vivo, 26 weeks): 1
Syncope, number ([1]; both, human, in vivo, 26 weeks): 0
Total of all serious adverse events, number of events ([1]; both, human, in vivo, 26 weeks): 6
Transient ischemic attack, number ([1]; both, human, in vivo, 26 weeks): 0
Unstable angina leading to hospitalization, number ([1]; both, human, in vivo, 26 weeks): 0
cardiovascular clinical adverse events ([1]; both, human, in vivo, 26 weeks): 2.8%
cardiovascular clinical adverse events, number ([1]; both, human, in vivo, 26 weeks): 15
patients reporting adverse events ([1]; both, human, in vivo, 26 weeks): 22.6%
patients reporting adverse events, number ([1]; both, human, in vivo, 26 weeks): 120
patients with serious adverse events ([1]; both, human, in vivo, 26 weeks): 0.9%
patients with serious adverse events, number ([1]; both, human, in vivo, 26 weeks): 5
patients withdrawn from the study because of an adverse event ([1]; both, human, in vivo, 26 weeks): 4.7%
adverse events thought to be related to pravastatin administration, number ([1]; both, human, in vivo, 52 weeks): 1
cases of unstable angina, number ([1]; both, human, in vivo, 52 weeks): 1
patients reporting clinical adverse events ([1]; both, human, in vivo, 52 weeks): 18.5%
patients reporting clinical adverse events, number ([1]; both, human, in vivo, 52 weeks): 55
patients who withdrew because of adverse events ([1]; both, human, in vivo, 52 weeks): 1.7%
episodes of unstable angina, number ([1]; both, human, in vivo, 78 weeks): 1
myocardial infarctions, number ([1]; both, human, in vivo, 78 weeks): 1
Sudden cardiac death, number ([1]; first 26 weeks): none
Sudden cardiac death, number [1, 5]: 0
Myocardial infarction (fatal and nonfatal), number ([1]; first 26 weeks): no patient and none
Myocardial infarction (fatal and nonfatal), number [1, 5]: 0
deaths ([1]; first 26 weeks, three placebo-treated patients died): no pravastatin-treated patient died
Total of all serious adverse events, number of events ([1]; human, in vivo): Six
patients who sustained myocardial infarctions, number ([1]; human, in vivo): One
patients who withdrew because of adverse events, number ([1]; human, in vivo): Five
patients withdrawn because of angioedema thought to be possibly related to drug therapy, number ([1]; human, in vivo): One
patients withdrawn because of creatine kinase elevation or musculoskeletal events, number ([1]; human, in vivo): Three
patients withdrawn from the study because of an adverse event, number ([1]; human, in vivo): Twenty-five
serious cerebrovascular events ([1]; human, in vivo): none
total incidence of clinical adverse events, pravastatin vs placebo ([1]; human, in vivo): no differences
deaths ([1]; long-term portion of the trial): no deaths
LDL cholesterol, Mean ± SEM ([2]; Baseline, n=499): 4.69 ± 1.05 mmol/L
HDL cholesterol, Mean ± SEM ([2]; Baseline, n=500): 1.14 ± 0.35 mmol/L
Triglycerides, Mean ± SEM ([2]; Baseline, n=520): 1.77 ± 0.82 mmol/L
Total cholesterol, Mean ± SEM ([2]; Baseline, n=521): 6.81 ± 0.78 mmol/L
HDL cholesterol, Mean ± SEM ([2]; Week 26, n=459): 1.23 ± 0.37 mmol/L
LDL cholesterol, Mean ± SEM ([2]; Week 26, n=459): 3.47 ± 0.74 mmol/L
Total cholesterol, Mean ± SEM ([2]; Week 26, n=483): 5.55 ± 0.82 mmol/L
Triglycerides, Mean ± SEM ([2]; Week 26, n=483): 1.56 ± 0.74 mmol/L
LDL cholesterol, % Change [2, 6]: −26.01%
Total cholesterol, % Change [2, 6]: −18.50%
Triglycerides, % Change [2, 6]: −11.86%
HDL cholesterol, % Change ([2]; baseline to Week 26, p<0.005 vs placebo): 7.90%
increase in HDL cholesterol concentrations [2, 7]: 8%
reduction in LDL cholesterol [2, 7]: 26%
reduction in total cholesterol [2, 7]: 19%
reduction in triglycerides [2, 7]: 12%
elevation in HDL cholesterol [2, 8]: 7%
reduction in LDL cholesterol [2, 8]: 26%
reduction in total cholesterol [2, 8]: 19%
reduction in triglycerides [2, 8]: 12%
patients who achieved the target cholesterol goal ([2]; week 13, goal: total cholesterol decrease >15% from baseline or to <5.2 mmol/liter): 66%
number of patients who achieved the target cholesterol goal ([2]; week 13, of 491 patients): 326
patients who attained an LDL cholesterol concentration of ≦3.4 mmol/liter (130 mg/dl) ([2]; week 26): 47%
patients with elevations of creatine kinase values to >4 times pretreatment values ([3]; both, human): 2.6%
patients with elevations of creatine kinase values to >4 times pretreatment values, number ([3]; both, human): 14
patients with transient, asymptomatic elevations of hepatic transaminases to >3 times the upper limit of normal ([3]; both, human): 1.1%
patients with transient, asymptomatic elevations of hepatic transaminases to >3 times the upper limit of normal, number ([3]; both, human): 6
magnitude of the increases in alanine aminotransferase, aspartate aminotransferase and creatine kinase [3]: 3-12%
mean level of alanine aminotransferase [3]: 16.02 U/liter
mean level of aspartate aminotransferase [3]: 17.24 U/liter
mean level of creatine kinase [3]: 70.62 U/liter
syndrome of drug-induced myopathy (myalgia with creatine kinase >10 times upper limits of normal) [3]: not observed in any patient
medical and surgical events in the coronary and cerebrovascular beds, number ([4]; first 26 weeks, 21 in the placebo group): 1
cases of myocardial infarction or unstable angina, number ([4]; over the 78 weeks of the study, 16 in the placebo group): 2
